In US20240336654A1, “ANTIMICROBIAL PEPTIDOMIMETICS” (SPEXIS AG, priority 2021, published 2024):
Where a SMILES comes first, the peptide text is derived from it. Bridges are numbered along the chain shown (N, C = ends). [ ]: non-standard residue; d: D form. The star is where a group is joined. Val(Nα-amidino) = CC(C)[C@H](NC(=N)N)C(=O)*; Hyp = O=C(O)[C@@H]1C[C@@H](O)CN1; Cit = NC(=O)NCCC[C@H](N)C(=O)O; Pen = CC(C)(S)[C@H](N)C(=O)O; ΔPro = O=C(O)[C@@H]1C=CCN1; dDab = NCC[C@@H](N)C(=O)O; hSer = N[C@@H](CCO)C(=O)O; Dab = NCC[C@H](N)C(=O)O

Tests used:
Type in all cases: cell-based
[1] = test system: human red blood cells (hRBC); conditions: red cells of human, 1 h, 200 μg/mL
Summary of the method: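 Peptides at 200 μg/mL incubated 1 h at 37 °C with 20% (v/v) washed human RBC, shaking. Hemolysis from supernatant OD540, expressed as percent of 2.5% Triton X-100 lysis, with PBS as 0%.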

[2] = test system: Escherichia coli MCR-1 Af 45; conditions: MCR-1 Af 45
Summary of the method: (§1)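 The MIC is the lowest peptide concentration, in μg/mL, with no visible growth after 18-20 h incubation at 35 °C. Serial two-fold peptide dilutions in water with 0.002% P-80 final were added to bacteria in cation-adjusted MHII broth, about 5×10^5 CFU/mL, following modified CLSI microdilution.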

[3] = test system: Klebsiella pneumoniae SSI3010; conditions: SSI3010
Summary of the method: as §1

[4] = test system: Escherichia coli ATCC 25922; conditions: ATCC 25922
Summary of the method: as §1

SMILES | Hemolysis at 0.2 g/L [1] [%] | Escherichia coli MCR-1 Af45 MIC [2] [µg/mL] | Klebsiella pneumoniae SSI3010 MIC [3] [µg/mL] | Escherichia coli ATCC 25922 MIC [4] [µg/mL]
CC[C@H](C)[C@H](NC(=O)[C@@H]1C[C@@H](O)CN1C(=O)[C@@H](NC(=N)N)C(C)C)C(=O)N[C@@H]1C(=O)N[C@@H](Cc2ccc(O)cc2)C(=O)N[C@@H]([C@@H](C)O)C(=O)N[C@@H](CC(N)=O)C(=O)N[C@@H](CCCNC(=N)N)C(=O)N[C@@H](CCN)C(=O)N[C@@H]([C@@H](C)O)C(=O)N[C@H](CCN)C(=O)N[C@@H](CCCCN)C(=O)N[C@@H](CCN)C(=O)N[C@@H](CO)C(=O)N[C@H](C(=O)N[C@@H](Cc2ccc(O)cc2)C(=O)O)CSSC1(C)C [Example 108, Gua-Val-Hyp-Ile-Pen-Tyr-Thr-Asn-Arg-Dab-Thr-Dab-Lys-Dab-S-Cys-Tyr] ({Val(Nα-amidino)}-[Hyp]I[Pen]YTNR[Dab]T[dDab]K[Dab]SCY-OH; disulfide 3-14) | <1 | 0.125 | 0.25 | 0.25
CC[C@H](C)[C@H](NC(=O)[C@@H]1C=CCN1C(=O)[C@@H](NC(=N)N)C(C)C)C(=O)N[C@@H]1C(=O)N[C@@H](Cc2ccc(O)cc2)C(=O)N[C@@H]([C@@H](C)O)C(=O)N[C@@H](CC(N)=O)C(=O)N[C@@H](CCCNC(=N)N)C(=O)N[C@@H](CCN)C(=O)N[C@@H]([C@@H](C)O)C(=O)N[C@H](CCN)C(=O)N[C@@H](CCCCN)C(=O)N[C@@H](CCN)C(=O)N[C@@H](CCN)C(=O)N[C@H](C(=O)N[C@@H](Cc2ccc(O)cc2)C(=O)O)CSSC1(C)C [Example 109, Gua-Val-Pro(3,4dehydro)-Ile-Pen-Tyr-Thr-Asn-Arg-Dab-Thr-^DDab-Lys-Dab-Dab-Cys-Tyr] ({Val(Nα-amidino)}-[ΔPro]I[Pen]YTNR[Dab]T[dDab]K[Dab][Dab]CY-OH; disulfide 3-14) | <1 | 0.03125 | 0.125 | 0.0625
CC[C@H](C)[C@H](NC(=O)[C@@H]1C=CCN1C(=O)[C@@H](NC(=N)N)C(C)C)C(=O)N[C@@H]1C(=O)N[C@@H](Cc2ccc(O)cc2)C(=O)N[C@@H](CO)C(=O)N[C@@H](CC(N)=O)C(=O)N[C@@H](CCCNC(=N)N)C(=O)N[C@@H](CCN)C(=O)N[C@@H]([C@@H](C)O)C(=O)N[C@H](CCN)C(=O)N[C@@H](CCCCN)C(=O)N[C@@H](CCN)C(=O)N[C@@H](CCN)C(=O)N[C@H](C(=O)N[C@@H](Cc2ccc(O)cc2)C(=O)O)CSSC1(C)C [Example 110, Gua-Val-Pro(3,4dehydro)-Ile-Pen-Tyr-Ser-Asn-Arg-Dab-Thr-^DDab-Lys-Dab-Dab-Cys-Tyr] ({Val(Nα-amidino)}-[ΔPro]I[Pen]YSNR[Dab]T[dDab]K[Dab][Dab]CY-OH; disulfide 3-14) | <1 | 0.0625 | 0.125 | 0.0625
CC[C@H](C)[C@H](NC(=O)[C@@H]1C=CCN1C(=O)[C@@H](NC(=N)N)C(C)C)C(=O)N[C@@H]1C(=O)N[C@@H](Cc2ccc(O)cc2)C(=O)N[C@@H]([C@@H](C)O)C(=O)N[C@@H](CC(N)=O)C(=O)N[C@@H](CCCNC(=N)N)C(=O)N[C@@H](CCN)C(=O)N[C@@H]([C@@H](C)O)C(=O)N[C@H](CCN)C(=O)N[C@@H](CO)C(=O)N[C@@H](CCN)C(=O)N[C@@H](CCN)C(=O)N[C@H](C(=O)N[C@@H](Cc2ccc(O)cc2)C(=O)O)CSSC1(C)C [Example 111, Gua-Val-Pro(3,4dehydro)-Ile-Pen-Tyr-Thr-Asn-Arg-Dab-Thr-^DDab-Ser-Dab-Dab-Cys-Tyr] ({Val(Nα-amidino)}-[ΔPro]I[Pen]YTNR[Dab]T[dDab]S[Dab][Dab]CY-OH; disulfide 3-14) | <1 | 0.0625 | 0.125 | 0.125
CC[C@H](C)[C@H](NC(=O)[C@@H]1C[C@@H](O)CN1C(=O)[C@@H](NC(=N)N)C(C)C)C(=O)N[C@H]1CCNC(=O)CC[C@@H](C(=O)N[C@@H](Cc2ccc(O)cc2)C(=O)O)NC(=O)[C@H](CCN)NC(=O)[C@H](CCN)NC(=O)[C@H](CO)NC(=O)[C@@H](CCN)NC(=O)[C@H]([C@@H](C)O)NC(=O)[C@H](CCN)NC(=O)[C@H](CCCNC(=N)N)NC(=O)[C@H](CC(N)=O)NC(=O)[C@H]([C@@H](C)O)NC(=O)[C@H](Cc2ccc(O)cc2)NC1=O [Example 112, Gua-Val-Hyp-Ile-Dab-Tyr-Thr-Asn-Arg-Dab-Thr-^DDab-Ser-Dab-Dab-Glu-Tyr] ({Val(Nα-amidino)}-[Hyp]I[Dab]YTNR[Dab]T[dDab]S[Dab][Dab]EY-OH; lactam 3-14) | <1 | 0.125 | 0.25 | 0.125
CC[C@H](C)[C@H](NC(=O)[C@@H]1C[C@@H](O)CN1C(=O)[C@@H](NC(=N)N)C(C)C)C(=O)N[C@H]1CCNC(=O)CC[C@@H](C(=O)N[C@@H](Cc2ccc(O)cc2)C(=O)O)NC(=O)[C@H](CCN)NC(=O)[C@H](CCN)NC(=O)[C@H]([C@@H](C)O)NC(=O)[C@@H](CCN)NC(=O)[C@H]([C@@H](C)O)NC(=O)[C@H](CCN)NC(=O)[C@H](CCCNC(=N)N)NC(=O)[C@H](CC(N)=O)NC(=O)[C@H]([C@@H](C)O)NC(=O)[C@H](Cc2ccc(O)cc2)NC1=O [Example 113, Gua-Val-Hyp-Ile-Dab-Tyr-Thr-Asn-Arg-Dab-Thr-^DDab-Thr-Dab-Dab-Glu-Tyr] ({Val(Nα-amidino)}-[Hyp]I[Dab]YTNR[Dab]T[dDab]T[Dab][Dab]EY-OH; lactam 3-14) | <1 | 0.125 | 0.25 | 0.125
CC[C@H](C)[C@H](NC(=O)[C@@H]1C[C@@H](O)CN1C(=O)[C@@H](NC(=N)N)C(C)C)C(=O)N[C@H]1CCNC(=O)CC[C@@H](C(=O)N[C@@H](Cc2ccc(O)cc2)C(=O)O)NC(=O)[C@H](CCN)NC(=O)[C@H](CCN)NC(=O)[C@H](CCCNC(N)=O)NC(=O)[C@@H](CCN)NC(=O)[C@H]([C@@H](C)O)NC(=O)[C@H](CCN)NC(=O)[C@H](CCCNC(=N)N)NC(=O)[C@H](CC(N)=O)NC(=O)[C@H]([C@@H](C)O)NC(=O)[C@H](Cc2ccc(O)cc2)NC1=O [Example 114, Gua-Val-Hyp-Ile-Dab-Tyr-Thr-Asn-Arg-Dab-Thr-^DDab-Cit-Dab-Dab-Glu-Tyr] ({Val(Nα-amidino)}-[Hyp]I[Dab]YTNR[Dab]T[dDab][Cit][Dab][Dab]EY-OH; lactam 3-14) | <1 | 0.125 | 0.5 | 0.125
CC[C@H](C)[C@H](NC(=O)[C@@H]1C[C@@H](O)CN1C(=O)[C@@H](NC(=N)N)C(C)C)C(=O)N[C@@H]1C(=O)N[C@@H](Cc2ccc(O)cc2)C(=O)N[C@@H](CCCNC(N)=O)C(=O)N[C@@H](CC(N)=O)C(=O)N[C@@H](CCCNC(=N)N)C(=O)N[C@@H](CCN)C(=O)N[C@@H]([C@@H](C)O)C(=O)N[C@H](CCN)C(=O)N[C@@H](CCCCN)C(=O)N[C@@H](CCN)C(=O)N[C@@H](CCN)C(=O)N[C@H](C(=O)N[C@@H](Cc2ccc(O)cc2)C(=O)O)CSSC1(C)C [Example 115, Gua-Val-Hyp-Ile-Pen-Tyr-Cit-Asn-Arg-Dab-Thr-^DDab-Lys-Dab-Dab-Cys-Tyr] ({Val(Nα-amidino)}-[Hyp]I[Pen]Y[Cit]NR[Dab]T[dDab]K[Dab][Dab]CY-OH; disulfide 3-14) | <1 | 0.0625 | 0.125 | 0.125
CC[C@H](C)[C@H](NC(=O)[C@@H]1C[C@@H](O)CN1C(=O)[C@@H](NC(=N)N)C(C)C)C(=O)N[C@H]1CCNC(=O)CC[C@@H](C(=O)N[C@@H](Cc2ccc(O)cc2)C(=O)O)NC(=O)[C@H](CCN)NC(=O)[C@H](CCN)NC(=O)[C@H](CCCCN)NC(=O)[C@@H](CCN)NC(=O)[C@H]([C@@H](C)O)NC(=O)[C@H](CCN)NC(=O)[C@H](CCCNC(=N)N)NC(=O)[C@H](CC(N)=O)NC(=O)[C@H](CCCNC(N)=O)NC(=O)[C@H](Cc2ccc(O)cc2)NC1=O [Example 116, Gua-Val-Hyp-Ile-Dab-Tyr-Cit-Asn-Arg-Dab-Thr-^DDab-Lys-Dab-Dab-Glu-Tyr] ({Val(Nα-amidino)}-[Hyp]I[Dab]Y[Cit]NR[Dab]T[dDab]K[Dab][Dab]EY-OH; lactam 3-14) | <1 | 0.0625 | 0.125 | 0.0625
CC[C@H](C)[C@H](NC(=O)[C@@H]1C[C@@H](O)CN1C(=O)[C@@H](NC(=N)N)C(C)C)C(=O)N[C@@H]1C(=O)N[C@@H](Cc2ccc(O)cc2)C(=O)N[C@@H](CCO)C(=O)N[C@@H](CC(N)=O)C(=O)N[C@@H](CCCNC(=N)N)C(=O)N[C@@H](CCN)C(=O)N[C@@H]([C@@H](C)O)C(=O)N[C@H](CCN)C(=O)N[C@@H](CCCCN)C(=O)N[C@@H](CCN)C(=O)N[C@@H](CCN)C(=O)N[C@H](C(=O)N[C@@H](Cc2ccc(O)cc2)C(=O)O)CSSC1(C)C [Example 117, Gua-Val-Hyp-Ile-Pen-Tyr-Hse-Asn-Arg-Dab-Thr-^DDab-Lys-Dab-Dab-Cys-Tyr] ({Val(Nα-amidino)}-[Hyp]I[Pen]Y[hSer]NR[Dab]T[dDab]K[Dab][Dab]CY-OH; disulfide 3-14) | <1 | 0.0625 | 0.125 | 0.125
